Article PMC10327353 (Breast Cancer Research : BCR, 2023)

Experiment: Phase 1 study: safety and tolerability
Type: in vivo
Experimental: The maximum tolerated dose (MTD) of DZD1516 was defined based on safety data and the Bayesian optimal interval (BOIN) design (Additional file 1). The definition of DLT is provided in Additional file 1.
The AE grading was assessed according to the NCI-Common Terminology Criteria for Adverse Events (CTCAE) (version 5.0) and was monitored until 28 days after the last dose.
Eligible patients received single oral dosing of DZD1516 on Cycle 0 Day 1 (C0D1), followed by a 7-day washout. Twice daily oral dosing (bid) of DZD1516 was commenced from C1D1 in a continuous 21-day cycle until disease progression, unacceptable toxicity, or withdrawal of consent. All doses were taken under fed conditions (within 30 minutes after a meal).
Planned dosing consisted of 25, 50, 100, 200, 300, and 400 mg. Each dose escalation cohort will comprise a minimum of three and a maximum of six evaluable patients (except only one patient in the starting dose cohort). The maximum tolerated dose of DZD1516 was defined according to safety data and the Bayesian optimal interval (BOIN) design. Dose escalation/de-escalation rule with target toxicity rate for the MTD is 0.30 with interval of (0.20, 0.33).
DLTs were any adverse event (AE) not clearly attributable to the patient’s disease, including ≥ grade 4 hematological toxicities present for ≥ 4 days, grade 3 thrombocytopenia with bleeding, or grade 4 thrombocytopenia lasting for > 5 days, ≥ grade 3 non-hematological toxicities that is dose-limiting in the judgment of the investigators. Any other toxicity that is greater than that at baseline, is clinically significant or unacceptable, and is judged to be a DLT by the SRC. Exceptions included alopecia of any grade and isolated grade 3 laboratory change without clinical sequelae or clinical significance.
Safety evaluations were conducted at screening, on Day 1, 8, and 15 of Cycle 1, on Day 1 of each subsequent treatment cycle, at the end-of-treatment visit, and clinically indicated. Safety assessments included clinical laboratory measurements (hematology, chemistry, coagulation, and urinalysis), electrocardiogram (ECG), Echocardiogram/MUGA scan, ECOG performance status, vital signs, and physical examinations.

COc1cc(O[C@H]2CCN(C)CC2(F)F)c2c(Nc3ccc(Oc4ccn5ncnc5c4)c(C)c3)ncnc2c1 [DZD1516]
Alanine aminotransferase increased, Any Grade (25 mg (N = 1)): 0 (0.0) n (%) | Alanine aminotransferase increased, ≥ Grade 3 (25 mg (N = 1)): 0 (0.0) n (%) | Anemia, Any Grade (25 mg (N = 1)): 0 (0.0) n (%) | Anemia, ≥ Grade 3 (25 mg (N = 1)): 0 (0.0) n (%) | Any TEAE: Grade 3 (25 mg (N = 1)): 0 (0.0) n (%) | Any TEAE: Leading to death (25 mg (N = 1)): 0 (0.0) n (%) | Any TEAE: Leading to dose reduction (25 mg (N = 1)): 0 (0.0) n (%) | Any TEAE: Leading to treatment discontinuation (25 mg (N = 1)): 0 (0.0) n (%) | Any TEAE: Leading to treatment interruption (25 mg (N = 1)): 0 (0.0) n (%) | Any TEAE: SAE (25 mg (N = 1)): 0 (0.0) n (%) | Aspartate aminotransferase increased, Any Grade (25 mg (N = 1)): 0 (0.0) n (%) | Aspartate aminotransferase increased, ≥ Grade 3 (25 mg (N = 1)): 0 (0.0) n (%) | Blood and lymphatic system disorders, Any Grade (25 mg (N = 1)): 0 (0.0) n (%) | Blood and lymphatic system disorders, ≥ Grade 3 (25 mg (N = 1)): 0 (0.0) n (%) | Blood bilirubin increased, Any Grade (25 mg (N = 1)): 1 (100.0) n (%) | Blood bilirubin increased, ≥ Grade 3 (25 mg (N = 1)): 0 (0.0) n (%) | Cardiac disorders, Any Grade (25 mg (N = 1)): 0 (0.0) n (%) | Cardiac disorders, ≥ Grade 3 (25 mg (N = 1)): 0 (0.0) n (%) | Constipation, Any Grade (25 mg (N = 1)): 0 (0.0) n (%) | Constipation, ≥ Grade 3 (25 mg (N = 1)): 0 (0.0) n (%) | Decreased appetite, Any Grade (25 mg (N = 1)): 0 (0.0) n (%) | Decreased appetite, ≥ Grade 3 (25 mg (N = 1)): 0 (0.0) n (%) | Dizziness, Any Grade (25 mg (N = 1)): 0 (0.0) n (%) | Dizziness, ≥ Grade 3 (25 mg (N = 1)): 0 (0.0) n (%) | Drug-related TEAE: Grade 3 (25 mg (N = 1)): 0 (0.0) n (%) | Drug-related TEAE: Leading to death (25 mg (N = 1)): 0 (0.0) n (%) | Drug-related TEAE: Leading to dose reduction (25 mg (N = 1)): 0 (0.0) n (%) | Drug-related TEAE: Leading to treatment discontinuation (25 mg (N = 1)): 0 (0.0) n (%) | Drug-related TEAE: Leading to treatment interruption (25 mg (N = 1)): 0 (0.0) n (%) | Drug-related TEAE: SAE (25 mg (N = 1)): 0 (0.0) n (%) | Fatigue, Any Grade (25 mg (N = 1)): 0 (0.0) n (%) | Fatigue, ≥ Grade 3 (25 mg (N = 1)): 0 (0.0) n (%) | Gastrointestinal disorders, Any Grade (25 mg (N = 1)): 0 (0.0) n (%) | Gastrointestinal disorders, ≥ Grade 3 (25 mg (N = 1)): 0 (0.0) n (%) | General disorders and administration site conditions, Any Grade (25 mg (N = 1)): 0 (0.0) n (%) | General disorders and administration site conditions, ≥ Grade 3 (25 mg (N = 1)): 0 (0.0) n (%) | Headache, Any Grade (25 mg (N = 1)): 0 (0.0) n (%) | Headache, ≥ Grade 3 (25 mg (N = 1)): 0 (0.0) n (%) | Hemoglobin decreased, Any Grade (25 mg (N = 1)): 0 (0.0) n (%) | Hemoglobin decreased, ≥ Grade 3 (25 mg (N = 1)): 0 (0.0) n (%) | Investigations, Any Grade (25 mg (N = 1)): 1 (100.0) n (%) | Investigations, ≥ Grade 3 (25 mg (N = 1)): 0 (0.0) n (%) | Lipase increased, Any Grade (25 mg (N = 1)): 0 (0.0) n (%) | Lipase increased, ≥ Grade 3 (25 mg (N = 1)): 0 (0.0) n (%) | Malaise, Any Grade (25 mg (N = 1)): 0 (0.0) n (%) | Malaise, ≥ Grade 3 (25 mg (N = 1)): 0 (0.0) n (%) | Metabolism and nutrition disorders, Any Grade (25 mg (N = 1)): 0 (0.0) n (%) | Metabolism and nutrition disorders, ≥ Grade 3 (25 mg (N = 1)): 0 (0.0) n (%) | Musculoskeletal and connective tissue disorders, Any Grade (25 mg (N = 1)): 0 (0.0) n (%) | Musculoskeletal and connective tissue disorders, ≥ Grade 3 (25 mg (N = 1)): 0 (0.0) n (%) | Nausea, Any Grade (25 mg (N = 1)): 0 (0.0) n (%) | Nausea, ≥ Grade 3 (25 mg (N = 1)): 0 (0.0) n (%) | Nervous system disorders, Any Grade (25 mg (N = 1)): 0 (0.0) n (%) | Nervous system disorders, ≥ Grade 3 (25 mg (N = 1)): 0 (0.0) n (%) | Participants with any TEAE, Any Grade (25 mg (N = 1)): 1 (100.0) n (%) | Participants with any TEAE, ≥ Grade 3 (25 mg (N = 1)): 0 (0.0) n (%) | Platelet count decreased, Any Grade (25 mg (N = 1)): 0 (0.0) n (%) | Platelet count decreased, ≥ Grade 3 (25 mg (N = 1)): 0 (0.0) n (%) | Proteinuria, Any Grade (25 mg (N = 1)): 0 (0.0) n (%) | Proteinuria, ≥ Grade 3 (25 mg (N = 1)): 0 (0.0) n (%) | Renal and urinary disorders, Any Grade (25 mg (N = 1)): 0 (0.0) n (%) | Renal and urinary disorders, ≥ Grade 3 (25 mg (N = 1)): 0 (0.0) n (%) | Subjects with any TEAE (25 mg (N = 1)): 1 (100.0) n (%) | Subjects with any drug-related TEAE (25 mg (N = 1)): 1 (100.0) n (%) | Vomiting, Any Grade (25 mg (N = 1)): 0 (0.0) n (%) | Vomiting, ≥ Grade 3 (25 mg (N = 1)): 0 (0.0) n (%) | White blood cell count decreased, Any Grade (25 mg (N = 1)): 0 (0.0) n (%) | White blood cell count decreased, ≥ Grade 3 (25 mg (N = 1)): 0 (0.0) n (%) | Alanine aminotransferase increased, Any Grade (50 mg (N = 4)): 1 (25.0) n (%) | Alanine aminotransferase increased, ≥ Grade 3 (50 mg (N = 4)): 0 (0.0) n (%) | Anemia, Any Grade (50 mg (N = 4)): 0 (0.0) n (%) | Anemia, ≥ Grade 3 (50 mg (N = 4)): 0 (0.0) n (%) | Any TEAE: Grade 3 (50 mg (N = 4)): 0 (0.0) n (%) | Any TEAE: Leading to death (50 mg (N = 4)): 0 (0.0) n (%) | Any TEAE: Leading to dose reduction (50 mg (N = 4)): 0 (0.0) n (%) | Any TEAE: Leading to treatment discontinuation (50 mg (N = 4)): 0 (0.0) n (%) | Any TEAE: Leading to treatment interruption (50 mg (N = 4)): 0 (0.0) n (%) | Any TEAE: SAE (50 mg (N = 4)): 0 (0.0) n (%) | Aspartate aminotransferase increased, Any Grade (50 mg (N = 4)): 1 (25.0) n (%) | Aspartate aminotransferase increased, ≥ Grade 3 (50 mg (N = 4)): 0 (0.0) n (%) | Blood and lymphatic system disorders, Any Grade (50 mg (N = 4)): 0 (0.0) n (%) | Blood and lymphatic system disorders, ≥ Grade 3 (50 mg (N = 4)): 0 (0.0) n (%) | Blood bilirubin increased, Any Grade (50 mg (N = 4)): 0 (0.0) n (%) | Blood bilirubin increased, ≥ Grade 3 (50 mg (N = 4)): 0 (0.0) n (%) | Cardiac disorders, Any Grade (50 mg (N = 4)): 0 (0.0) n (%) | Cardiac disorders, ≥ Grade 3 (50 mg (N = 4)): 0 (0.0) n (%) | Constipation, Any Grade (50 mg (N = 4)): 0 (0.0) n (%) | Constipation, ≥ Grade 3 (50 mg (N = 4)): 0 (0.0) n (%) | Decreased appetite, Any Grade (50 mg (N = 4)): 0 (0.0) n (%) | Decreased appetite, ≥ Grade 3 (50 mg (N = 4)): 0 (0.0) n (%) | Dizziness, Any Grade (50 mg (N = 4)): 0 (0.0) n (%) | Dizziness, ≥ Grade 3 (50 mg (N = 4)): 0 (0.0) n (%) | Drug-related TEAE: Grade 3 (50 mg (N = 4)): 0 (0.0) n (%) | Drug-related TEAE: Leading to death (50 mg (N = 4)): 0 (0.0) n (%) | Drug-related TEAE: Leading to dose reduction (50 mg (N = 4)): 0 (0.0) n (%) | Drug-related TEAE: Leading to treatment discontinuation (50 mg (N = 4)): 0 (0.0) n (%) | Drug-related TEAE: Leading to treatment interruption (50 mg (N = 4)): 0 (0.0) n (%) | Drug-related TEAE: SAE (50 mg (N = 4)): 0 (0.0) n (%) | Fatigue, Any Grade (50 mg (N = 4)): 0 (0.0) n (%) | Fatigue, ≥ Grade 3 (50 mg (N = 4)): 0 (0.0) n (%) | Gastrointestinal disorders, Any Grade (50 mg (N = 4)): 0 (0.0) n (%) | Gastrointestinal disorders, ≥ Grade 3 (50 mg (N = 4)): 0 (0.0) n (%) | General disorders and administration site conditions, Any Grade (50 mg (N = 4)): 0 (0.0) n (%) | General disorders and administration site conditions, ≥ Grade 3 (50 mg (N = 4)): 0 (0.0) n (%) | Headache, Any Grade (50 mg (N = 4)): 1 (25.0) n (%) | Headache, ≥ Grade 3 (50 mg (N = 4)): 0 (0.0) n (%) | Hemoglobin decreased, Any Grade (50 mg (N = 4)): 2 (50.0) n (%) | Hemoglobin decreased, ≥ Grade 3 (50 mg (N = 4)): 0 (0.0) n (%) | Investigations, Any Grade (50 mg (N = 4)): 3 (75.0) n (%) | Investigations, ≥ Grade 3 (50 mg (N = 4)): 0 (0.0) n (%) | Lipase increased, Any Grade (50 mg (N = 4)): 2 (50.0) n (%) | Lipase increased, ≥ Grade 3 (50 mg (N = 4)): 0 (0.0) n (%) | Malaise, Any Grade (50 mg (N = 4)): 0 (0.0) n (%) | Malaise, ≥ Grade 3 (50 mg (N = 4)): 0 (0.0) n (%) | Metabolism and nutrition disorders, Any Grade (50 mg (N = 4)): 1 (25.0) n (%) | Metabolism and nutrition disorders, ≥ Grade 3 (50 mg (N = 4)): 0 (0.0) n (%) | Musculoskeletal and connective tissue disorders, Any Grade (50 mg (N = 4)): 1 (25.0) n (%) | Musculoskeletal and connective tissue disorders, ≥ Grade 3 (50 mg (N = 4)): 0 (0.0) n (%) | Nausea, Any Grade (50 mg (N = 4)): 0 (0.0) n (%) | Nausea, ≥ Grade 3 (50 mg (N = 4)): 0 (0.0) n (%)
